Assay results published in patent US11458114B2, “Methods and compositions for enhancing synthesis secretion and transport of collagen to increase wound strength” (NORTH CELL PHARMACEUTICALS, INC., priority 2020, dated 2022).

Tests used:
wounds = experiment: Various drugs administered on wounds with or without sodium pyruvate or SRF: erythema rating and days to total re-epithelization; details: for Drug in commercial formula with SRF. Days to healing / Drug in commercial formula with sodium pyruvate only. Days to healing / Drug in commercial formula Days to healing: days to total re-epithelization
Protocol: All previous studies using pyruvate to treat wounds or be used as an antioxidant used only the sodium salt form of pyruvic acid. The drug products that were tested in previous studies used 1-3% sodium pyruvate and other sodium salts of alpha keto acids by weight 1-3% concentrations in the lotions and triple antibiotic formulations. […]

non-cancerous cells = experiment: Viable non-cancerous cells after incubation with anticancer drugs in various media; assay type: cell-based; details: for Percentage of viable cells after incubation with drugs: drug
[1] = Rating 1-10, 1 most erythema, 10 no erythema
[2] = Rating 1-10, 1 most erythema, 10 no erythema, drug alone

| Compound | Drugs in commercial formula with SRF erythema (wounds; [1]) | Drugs in commercial formula with sodium pyruvate only erythema (wounds; [1]) | Drugs in commercial formula erythema (wounds; [2]) | Drugs in commercial formula erythema (wounds; in vivo) | Drugs in commercial formula with SRF erythema (wounds; in vivo) | Drugs in commercial formula with sodium pyruvate only erythema (wounds; in vivo) | Drug in commercial formula with SRF. Days to healing (wounds) | Drug in commercial formula with sodium pyruvate only. Days to healing (wounds) | Drug in commercial formula Days to healing (wounds; drug alone) | Percentage of viable cells, Drugs in commercial formula (non-cancerous cells) | Percentage of viable cells, Drugs in commercial formula sodium pyruvate without SRF (non-cancerous cells) | Percentage of viable cells, Drugs in commercial formula with SRF (non-cancerous cells) | Percentage of viable cells after incubation with drugs (non-cancerous cells) | Percentage of viable cells, Drugs in commercial formula with SRF repeat study (non-cancerous cells) |
| --- | --- | --- | --- | --- | --- | --- | --- | --- | --- | --- | --- | --- | --- | --- |
| O=C1[O][Pt]2([NH][C@@H]3CCCC[C@H]3[NH]2)[O]C1=O [oxaliplatin] |  |  |  |  |  |  |  |  |  | 24% | 41% | 95% | 23% | 98% |
| Clc1ccc(COC(Cn2ccnc2)c2ccc(Cl)cc2Cl)cc1 (stereo not shown) [econazole] | 6 | 6 | 6 |  |  |  | 14 days | 17 days | 19 days |  |  |  |  |  |
| CC(C)[C@H](N)C(=O)OCCOCn1cnc2c(=O)[nH]c(N)nc21 [valaciclovir] | 8 | 8 | 8 |  |  |  | 14 days | 17 days | 18 days |  |  |  |  |  |
| N.N.O=C([O-])C1(C(=O)[O-])CCC1.[Pt+2] [Carboplatin] |  |  |  |  |  |  |  |  |  | 50% | 56% | 87% | 42% | 97% |
| Cc1cc(C2CCCCC2)n(O)c(=O)c1 [ciclopirox] | 9 | 5 | 4 |  |  |  | 9 days | 11 days | 20 days |  |  |  |  |  |
| C[C@@H]1[C@H](O)[C@@H](C)/C=C/C=C/CC/C=C/C=C/C=C/C=C/C(O[C@H]2O[C@H](C)[C@@H](O)[C@H](N)[C@@H]2O)CC2O[C@](O)(CC(O)C(O)CCC(O)CC(O)CC(O)CC(=O)O[C@H]1C)CC(O)C2C(=O)O (stereo partly shown) [nystatin] | 8 | 6 | 2 |  |  |  | 12 days | 14 days | 17 days |  |  |  |  |  |
| NCc1ccc(S(N)(=O)=O)cc1 [mafenide] | 7 | 8 | 8 |  |  |  | 12 days | 14 days | 18 days |  |  |  |  |  |
| CC[C@H]1OC(=O)[C@H](C)[C@@H](O[C@H]2C[C@@](C)(OC)[C@@H](O)[C@H](C)O2)[C@H](C)[C@@H](O[C@@H]2O[C@H](C)C[C@H](N(C)C)[C@H]2O)[C@](C)(O)C[C@@H](C)C(=O)[C@H](C)[C@@H](O)[C@]1(C)O [erythromycin] | 8 | 5 | 6 |  |  |  | 9 days | 13 days | 19 days |  |  |  |  |  |

The next lines start with results.

| Drugs in commercial formula with SRF erythema (wounds; [1]) | Drugs in commercial formula with sodium pyruvate only erythema (wounds; [1]) | Drugs in commercial formula erythema (wounds; [2]) | Drugs in commercial formula erythema (wounds; in vivo) | Drugs in commercial formula with SRF erythema (wounds; in vivo) | Drugs in commercial formula with sodium pyruvate only erythema (wounds; in vivo) | Compound | Drug in commercial formula with SRF. Days to healing (wounds) | Drug in commercial formula with sodium pyruvate only. Days to healing (wounds) | Drug in commercial formula Days to healing (wounds; drug alone) | Percentage of viable cells, Drugs in commercial formula (non-cancerous cells) | Percentage of viable cells, Drugs in commercial formula sodium pyruvate without SRF (non-cancerous cells) | Percentage of viable cells, Drugs in commercial formula with SRF (non-cancerous cells) | Percentage of viable cells after incubation with drugs (non-cancerous cells) | Percentage of viable cells, Drugs in commercial formula with SRF repeat study (non-cancerous cells) |
| --- | --- | --- | --- | --- | --- | --- | --- | --- | --- | --- | --- | --- | --- | --- |
| 7 | 3 | 1 |  |  |  | CC1=C(/C=C/C(C)=C/C=C/C(C)=C/CO)C(C)(C)CCC1 [Retinol] | 9 days | 15 days | 19 days |  |  |  |  |  |
| 7 | 7 | 7 |  |  |  | Cc1cccc(N(C)C(=S)Oc2ccc3ccccc3c2)c1 [tolnaftate] | 10 days | 13 days | 21 days |  |  |  |  |  |
| 7 | 6 | 3 |  |  |  | CN(C/C=C/c1ccccc1)Cc1cccc2ccccc12 [naftifine] | 13 days | 14 days | 20 days |  |  |  |  |  |
| 8 | 7 | 7 |  |  |  | Nc1nc2c(ncn2CCC(CO)CO)c(=O)[nH]1 [Penciclovir] | 12 days | 16 days | 17 days |  |  |  |  |  |
| 8 | 6 | 4 |  |  |  | Clc1ccc(CSC(Cn2ccnc2)c2ccc(Cl)cc2Cl)cc1 (stereo not shown) [sulconazole] | 11 days | 15 days | 20 days |  |  |  |  |  |
| 8 | 6 | 3 |  |  |  | CC(=O)N1CCN(c2ccc(OCC3COC(Cn4ccnc4)(c4ccc(Cl)cc4Cl)O3)cc2)CC1 (stereo not shown) [ketoconazole] | 14 days | 20 days | 23 days |  |  |  |  |  |
|  |  |  | 5 | 7 | 6 | microazole | 11 days | 12 days | 19 days |  |  |  |  |  |
| 9 | 7 | 6 |  |  |  | Clc1ccc(CO/N=C(\Cn2ccnc2)c2ccc(Cl)cc2Cl)c(Cl)c1 [oxiconazole] | 11 days | 14 days | 18 days |  |  |  |  |  |
|  |  |  | 4 | 8 | 6 | Clc1ccccc1C(c1ccccc1)(c1ccccc1)n1ccnc1 [Chlotrimizole] | 11 days | 15 days | 22 days |  |  |  |  |  |
| 7 | 6 | 5 |  |  |  | CC(=O)OCC(CCn1cnc2cnc(N)nc21)COC(C)=O [Famciclovir] | 12 days | 14 days | 17 days |  |  |  |  |  |
| 5 | 4 | 3 |  |  |  | CN(Cc1ccc(C(C)(C)C)cc1)Cc1cccc2ccccc12 [butenafine] | 16 days | 18 days | 21 days |  |  |  |  |  |
